One test has as its system TNFα. Description: cells. The following applies: Homo sapiens, Monocyte, LPS-stimulated human monocytes, TNFα content; read-out: EC50 TNF. It counts as cell-based, human.
For a further test, the target named is IRAK4 enzyme (Homo sapiens (Human), UniProt Q9NWZ3). Description: biochemical. The format is biochemical. As to conditions: IRAK4 enzyme, TR-FRET (HTRF), 500 μM ATP.

Molecules are shown by their SMILES.

The source of these data is patent US10336762B2 (priority 2017, dated 2019).

Sequence of IRAK4 enzyme (Q9NWZ3 whole entry): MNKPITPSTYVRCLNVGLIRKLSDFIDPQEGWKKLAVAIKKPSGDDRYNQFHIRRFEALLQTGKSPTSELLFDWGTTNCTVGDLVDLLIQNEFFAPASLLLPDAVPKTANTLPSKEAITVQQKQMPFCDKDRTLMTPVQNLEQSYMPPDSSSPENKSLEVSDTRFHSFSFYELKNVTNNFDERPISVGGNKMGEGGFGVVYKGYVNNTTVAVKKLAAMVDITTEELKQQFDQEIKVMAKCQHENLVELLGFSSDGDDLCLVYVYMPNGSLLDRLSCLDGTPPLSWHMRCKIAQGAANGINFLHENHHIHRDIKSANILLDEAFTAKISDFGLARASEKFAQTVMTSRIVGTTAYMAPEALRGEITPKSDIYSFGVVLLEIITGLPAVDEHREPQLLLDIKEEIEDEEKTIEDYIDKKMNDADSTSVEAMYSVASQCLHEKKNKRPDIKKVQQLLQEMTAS

For orientation: EC50 means the concentration at which the effect is half-maximal. Broadly, the IC50 is the midpoint of a concentration-inhibition curve. The low end stands for greater potency, the high end for weaker potency. `CNC(=O)c1cnc(-c2ccc3cc(C#N)cnn23)cc1NC12CC(NC(=O)OC)(C1)C2` [Example 488, methyl (3-((2-(3-cyano-pyrrolo[1,2-b]pyridazin-7-yl)-5-(methylcarbamoyl)pyridin-4-yl)amino)bicyclo[1.1.1]pentan-1-yl)carbamate]: the EC50 in the test on TNFα was found to be 0.071 µM. For the same compound, at IRAK4 enzyme, 0.001 µM corresponded to half-maximal inhibition (IC50).

For the compound `CNC(=O)c1cnc(-c2ccc3cc(C#N)cnn23)cc1NC12CC(C1)C2` [Example 489, 4-(bicyclo[1.1.1]pentan-1-ylamino)-6-(3-cyano-pyrrolo[1,2-b]pyridazin-7-yl)-N-methylnicotinamide], the EC50 with TNFα worked out at 0.121 µM. Moreover, inhibition against IRAK4 enzyme was half-maximal at 0.002 µM (IC50).

Turning to `CC(C)Nc1cc(-c2ccc3cc(C#N)cnn23)ncc1C(=O)Nc1cncc(N)c1` [Example 490], the EC50 in the test on TNFα stood at 0.22 µM. Moreover, inhibition against IRAK4 enzyme was half-maximal at 0.007 µM (IC50).

Turning to `CC(=O)Nc1cncc(NC(=O)c2cnc(-c3ccc4cc(C#N)cnn34)cc2NC(C)C)c1` [Example 491, N-(5-acetamidopyridin-3-yl)-6-(3-cyanopyrrolo[1,2-b]pyridazin-7-yl)-4-(isopropylamino) nicotinamide], the EC50 in the test on TNFα stood at 0.219 µM. The compound also had an IC50 at IRAK4 enzyme of 0.019 µM.

For `CC(=O)NC12CC(Nc3cc(-c4ccc5cc(C#N)cnn45)ncc3C(=O)NC3(C#N)CC3)(C1)C2` [Example 492, 4-((3-acetamido-bicyclo[1.1.1]pentan-1-yl)amino)-N-(1-cyano-cyclopropyl)-6-(3-cyanopyrrolo[1,2-b]pyridazin-7-yl)nicotinamide], in the test with TNFα, the EC50 was 0.101 µM. In addition, half-maximal inhibition on IRAK4 enzyme (IC50) was put at 0.001 µM.

On to `CC(=O)Nc1nc(NC(=O)c2cnc(-c3ccc4cc(C#N)cnn34)cc2NC(C)C)cs1` [Example 493, N-(2-acetamidothiazol-4-yl)-6-(3-cyanopyrrolo[1,2-b]pyridazin-7-yl)-4-(isopropylamino)nicotinamide], for which the EC50 in the test on TNFα is above 10 µM. On IRAK4 enzyme, this compound yielded an IC50 of 0.012 µM.

As for `CC(=O)NC12CC(Nc3cc(-c4ccc5cc(C#N)cnn45)ncc3C(=O)NC[C@@H](F)C(C)(C)F)(C1)C2` [Example 494, (R)-4-((3-acetamido-bicyclo[1.1.1]pentan-1-yl)amino)-6-(3-cyano-pyrrolo[1,2-b]pyridazin-7-yl)-N-(2,3-difluoro-3-methylbutyl)nicotinamide], the EC50 in the test on TNFα amounted to 0.044 µM. This compound returned an IC50 at IRAK4 enzyme below 0.001 µM.

Take `COC(C)(C)[C@H](F)CNC(=O)c1cnc(-c2ccc3cc(C#N)cnn23)cc1NC12CC(NC(C)=O)(C1)C2` [Example 495, (R)-4-((3-acetamidobicyclo[1.1.1]pentan-1-yl)amino)-6-(3-cyanopyrrolo[1,2-b]pyridazin-7-yl)-N-(2-fluoro-3-methoxy-3-methylbutyl)nicotinamide]: the EC50 with TNFα was 0.04 µM. For the same compound, the IC50 against IRAK4 enzyme was below 0.001 µM.

As to `CC(=O)NC12CC(Nc3cc(-c4ccc5cc(C#N)cnn45)ncc3C(=O)NCC#N)(C1)C2` [Example 496, 4-((3-acetamidobicyclo[1.1.1]pentan-1-yl)amino)-N-(cyanomethyl)-6-(3-cyanopyrrolo[1,2-b]pyridazin-7-yl)nicotinamide], the EC50 in the test on TNFα came out at 0.042 µM. At IRAK4 enzyme, this compound came in with an IC50 below 0.001 µM.

For `[2H]C([2H])([2H])NC(=O)c1cnc(-c2ccc3cc(C#N)cnn23)cc1NC12CC(NC(C)=O)(C1)C2` [Example 497, 4-((3-acetamidobicyclo[1.1.1]pentan-1-yl)amino)-6-(3-cyanopyrrolo[1,2-b]pyridazin-7-yl)-N-(methyl-d3)nicotinamide], in the test on TNFα, the EC50 was 0.055 µM. The IC50 at IRAK4 enzyme amounted to 0.001 µM.

Regarding `CNC(=O)c1cnc(-c2ccc3cc(C#N)cnn23)cc1NC12CC(NC(C)=O)(C1)C2` [Example 498, 4-((3-acetamidobicyclo[1.1.1]pentan-1-yl)amino)-6-(3-cyanopyrrolo[1,2-b]pyridazin-7-yl)-N-methyl-nicotinamide], the EC50 with TNFα turned out to be 0.043 µM. In addition, half-maximal inhibition against IRAK4 enzyme (IC50) was put at 0.001 µM.

Regarding `CC(=O)NC12CCC(Nc3cc(-c4ccc5cc(C#N)cnn45)ncc3C(=O)NC[C@@H](F)C(C)(C)O)(CC1)C2` [Example 499, (R)-4-((4-acetamidobicyclo[2.2.1]heptan-1-yl)amino)-6-(3-cyanopyrrolo[1,2-b]pyridazin-7-yl)-N-(2-fluoro-3-hydroxy-3-methylbutyl)nicotinamide], in the test with TNFα, the EC50 came out at 0.02 µM. Inhibition against IRAK4 enzyme was half-maximal at 0.001 µM (IC50).

On to `COC(=O)NC12CCC(Nc3cc(-c4ccc5cc(C#N)cnn45)ncc3C(=O)NC[C@@H](F)C(C)(C)O)(CC1)C2` [Example 500, (R)-methyl (4-((2-(3-cyano-pyrrolo[1,2-b]pyridazin-7-yl)-5-((2-fluoro-3-hydroxy-3-methylbutyl)carbamoyl)pyridin-4-yl)amino)bicyclo[2.2.1]heptan-1-yl)carbamate], for which the EC50 in the test on TNFα is 0.013 µM. For the same compound, on IRAK4 enzyme, half-maximal inhibition (IC50) required 0.001 µM.

In the case of `CC(=O)O[C@@H]1CCC[C@H](Nc2cc(-c3ccc4cc(C#N)cnn34)ncc2C(=O)NC[C@@H](F)C(C)(C)O)C1` [Example 501, (1R,3S)-3-((2-(3-cyanopyrrolo[1,2-b]pyridazin-7-yl)-5-(((R)-2-fluoro-3-hydroxy-3-methylbutyl)carbamoyl)pyridin-4-yl)amino)cyclohexyl acetate], the EC50 with TNFα came out at 0.063 µM. At IRAK4 enzyme, the IC50 is 0.002 µM.

Regarding `N#Cc1cnn2c(-c3cc(Nc4cccnc4)c(C(=O)N[C@H]4CC[C@H](NC(=O)C5CC5)CC4)cn3)ccc2c1` [Example 502, 6-(3-cyanopyrrolo[1,2-b]pyridazin-7-yl)-N-((1r,4r)-4-(cyclopropane-carboxamido)cyclohexyl)-4-(pyridin-3-ylamino) nicotinamide], in the test with TNFα, the concentration for a half-maximal effect (EC50) amounted to 0.093 µM. In addition, inhibition on IRAK4 enzyme was half-maximal at 0.001 µM (IC50).

`CC(C)(O)[C@H](F)CNC(=O)c1cnc(-c2ccc3cc(C#N)cnn23)cc1NC12CCC(F)(CC1)CC2` [Example 503, (R)-6-(3-cyanopyrrolo[1,2-b]pyridazin-7-yl)-N-(2-fluoro-3-hydroxy-3-methylbutyl)-4-((4-fluorobicyclo[2.2.2]octan-1-yl)amino)nicotinamide]: the EC50 in the test with TNFα came to 0.046 µM. Further, the IC50 at IRAK4 enzyme was 0.002 µM.

`CC(C)(O)[C@H](F)CNC(=O)c1cnc(-c2ccc3cc(C#N)cnn23)cc1N[C@@]12CC[C@@H](C1)[C@@H](O)C2` [Example 504, 6-(3-cyanopyrrolo[1,2-b]pyridazin-7-yl)-N-((R)-2-fluoro-3-hydroxy-3-methylbutyl)-4-(((1S,3S,4S)-3-hydroxybicyclo[2.2.1]heptan-1-yl)amino) nicotinamide]: the EC50 in the test on TNFα was 0.014 µM. In addition, on IRAK4 enzyme, the IC50 was below 0.001 µM.

As to `C=CC(=O)N[C@H]1CC[C@H](NC(=O)c2cnc(-c3ccc4cc(C#N)cnn34)cc2NC2CCCC(O)C2)CC1` (stereo partly drawn) [Example 505, N-((1r,4S)-4-acrylamidocyclohexyl)-6-(3-cyanopyrrolo[1,2-b]pyridazin-7-yl)-4-(((1S,3R)-3-hydroxycyclohexyl)amino)nicotinamide], the EC50 in the test on TNFα is 0.139 µM. The same compound displayed an IC50 against IRAK4 enzyme of 0.001 µM.

As for `N#Cc1cnn2c(-c3cc(NC45CCC(O)(CC4)CC5)c(C(=O)NC4CCC(NC(=O)C5CC5)CC4)cn3)ccc2c1` (stereo not shown) [Example 506, 6-(3-cyanopyrrolo[1,2-b]pyridazin-7-yl)-N-((1r,4r)-4-(cyclopropane-carboxamido)cyclohexyl)-4-((4-hydroxybicyclo[2.2.2]octan-1-yl)amino) nicotinamide], the EC50 in the test on TNFα came out at 0.05 µM. On IRAK4 enzyme, this compound showed an IC50 below 0.001 µM.

Take `COC(=O)NC12CC(Nc3cc(-c4ccc5cc(C#N)cnn45)ncc3C(=O)NC[C@@H](F)C(C)(C)O)(C1)C2` [Example 507, (R)-methyl (3-((2-(3-cyanopyrrolo[1,2-b]pyridazin-7-yl)-5-((2-fluoro-3-hydroxy-3-methylbutyl)carbamoyl)pyridin-4-yl)amino)bicyclo[1.1.1]pentan-1-yl)carbamate]: the EC50 with TNFα worked out at 0.027 µM. For the same compound, at IRAK4 enzyme, the IC50 was below 0.001 µM.

For the compound `CC(=O)NC12CC(Nc3cc(-c4ccc5cc(C#N)cnn45)ncc3C(=O)NC[C@@H](F)C(C)(C)O)(C1)C2` [Example 508, (R)-4-((3-acetamidobicyclo[1.1.1]pentan-1-yl)amino)-6-(3-cyanopyrrolo[1,2-b]pyridazin-7-yl)-N-(2-fluoro-3-hydroxy-3-methyl-butyl)nicotinamide], in the test on TNFα, the half-maximal effective concentration (EC50) was determined as 0.022 µM. Further, the IC50 on IRAK4 enzyme was below 0.001 µM.

As for `CC(C)(O)[C@H](F)CNC(=O)c1cnc(-c2ccc3cc(C#N)cnn23)cc1NC1CCCC(F)C1` (stereo partly drawn) [Example 509, 6-(3-cyanopyrrolo[1,2-b]pyridazin-7-yl)-N-((R)-2-fluoro-3-hydroxy-3-methylbutyl)-4-(((1S)-3-fluorocyclohexyl)amino) nicotinamide], in the test with TNFα, the EC50 came out at 0.066 µM. This compound showed a half-maximal inhibitory concentration (IC50) at IRAK4 enzyme below 0.001 µM.

Consider `CC1(O)CC2(CC(Nc3cc(-c4ccc5cc(C#N)cnn45)ncc3C(=O)NC[C@@H](F)C(C)(C)O)C2)C1` (stereo partly drawn) [Example 510, (R)-6-(3-cyanopyrrolo[1,2-b]pyridazin-7-yl)-N-(2-fluoro-3-hydroxy-3-methylbutyl)-4-((6-hydroxy-6-methylspiro[3.3]heptan-2-yl)amino)nicotinamide], for which the concentration giving a half-maximal response (EC50) in the test on TNFα worked out at 0.039 µM. Moreover, the IC50 on IRAK4 enzyme is below 0.001 µM.

On to `CC(C)(O)[C@H](F)CNC(=O)c1cnc(-c2ccc3cc(C#N)cnn23)cc1NC1CC2(CC(O)C2)C1` (stereo partly drawn) [Example 511, (R)-6-(3-cyano-pyrrolo[1,2-b]pyridazin-7-yl)-N-(2-fluoro-3-hydroxy-3-methylbutyl)-4-((6-hydroxyspiro[3.3]heptan-2-yl)amino) nicotinamide], for which the EC50 in the test on TNFα was determined as 0.026 µM. For the same compound, the IC50 against IRAK4 enzyme was below 0.001 µM.

As to `CNC(=O)c1cnc(-c2ccc3cc(C#N)cnn23)cc1N[C@H]1CCC[C@@H](O)C1` [Example 512, 6-(3-cyanopyrrolo[1,2-b]pyridazin-7-yl)-4-(((1S,3R)-3-hydroxy-cyclohexyl)amino)-N-methylnicotinamide], in the test with TNFα, the EC50 was 0.098 µM. This compound registered an IC50 against IRAK4 enzyme of 0.003 µM.

On to `N#Cc1cnn2c(-c3cc(N[C@H]4CCC[C@@H](O)C4)c(C(=O)NC4(C#N)CC4)cn3)ccc2c1` [Example 513, N-(1-cyanocyclopropyl)-6-(3-cyanopyrrolo[1,2-b]pyridazin-7-yl)-4-(((1S,3R)-3-hydroxy-cyclohexyl)amino) nicotinamide], for which the half-maximal effective concentration (EC50) in the test with TNFα turned out to be 0.11 µM. The compound also showed an IC50 at IRAK4 enzyme of 0.002 µM.
